Test [1] deals with anti-FITC scFv in CAR4-1BBZ on transduced T cells. Briefly: Binding of FITC-Folate conjugates to CAR4-1BBZ transduced T cells, confocal microscopy. On the set-up: species or system mouse. The method, then:
To examine the ability of the transduced T cells containing CAR4-1BBZ to bind the FITC-Folate conjugates, binding assays with the FITC-Folate conjugate and the FITC-(PEG)12-Folate conjugate were performed. Since the excitation wavelength of FITC in the FITC-Folate conjugates overlapped with copGFP in CAR4-1BB transduced T cells, it was difficult to distinguish between FITC binding and copGFP expression. Therefore, an anti-Folate Acid (FA) monoclonal antibody and a fluorephore (excitation 640 nm)-labeled anti-mouse IgG antibody were utilized.
First, the transduced T cells were incubated with FITC-Folate or FITC-(PEG)12-Folate conjugates at room temperature for 1 hour. After washing with 1×PBS, transduced T cells were incubated with anti-FA monoclonal antibody (1:15 dilution) for 1 hour. After another washing with 1×PBS, transduced T cells further were incubated with fluorophore (excitation 640 nm) labeled anti-mouse IgG antibody (1:50 dilution). Finally, unbound antibodies were washed away and a confocal microscope was used to confirm the FITC-Folate and FITC-(PEG)12-Folate conjugates binding ability. All data was analyzed by Olympus Fluoview software. […] Simultaneously, binding of FITC-Folate and FITC-(PEG)12-Folate conjugates (arrows) were also detected on the CAR4-1BBZ transduced T cells.

Test [2] deals with T1, folate receptor (FR) on KB cells (Homo sapiens, UniProt P15328).
T1 construct: endogenous in cells; host or cells: KB cells
T1 sequence (P15328 25-234): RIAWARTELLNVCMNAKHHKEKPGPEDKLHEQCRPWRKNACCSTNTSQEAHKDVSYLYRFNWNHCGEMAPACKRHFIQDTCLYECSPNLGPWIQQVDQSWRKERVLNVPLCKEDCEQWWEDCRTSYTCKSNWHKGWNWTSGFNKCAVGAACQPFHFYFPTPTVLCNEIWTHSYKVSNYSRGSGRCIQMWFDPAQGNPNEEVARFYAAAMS
The test is described as follows: Binding of FITC-Folate conjugates to FR positive KB cancer cells, fluorescence/confocal microscopy. The method, then: (§1) The ability of the FITC-Folate and FITC-(PEG)12-Folate conjugates to bind folate receptor (FR) positive cancer cells was next investigated. FR positive cells lines L1210A (Mouse lymphocytic leukemia) and KB (Mouth epidermal carcinoma), which are FR positive cell lines, were used to test the binding affinity of the FITC-Folate conjugates. Briefly, 3-4×10^4 cancer cells were prepared to perform binding affinity assays with FITC-Folate and FITC-(PEG)12-Folate conjugates. With two different concentrations (e.g. 20 nM, 70 nM), the two FITC-Folate conjugates were incubated with cancer cells at room temperature for 1 hour. Since both FITC-Folate conjugates have fluorescence, the binding ability of FITC-Folate conjugates to cancer cells can be detected by florescence microscopy. After two washes with 1× phosphate buffered saline (PBS) to remove all unbound compound, the cancer cells were observed by confocal microscope. In order to specify whether FITC-Folate conjugates bind to cancer cells via FR on the surface of cancer cells, Folate Acid was also incubated with cancer cells as a competition compound. […] As shown in competition panel, addition of 50× excess folate acid blocked FITC-Folate binding with these cancer cells, which indicates the specific binding is between folate acid and FR on cell surface.

Test [3] relates to folate receptor (FR) on L1210A cells. The test is described as follows: Binding of FITC-Folate conjugates to FR positive L1210A cancer cells, fluorescence/confocal microscopy. Details: species or system mouse. The method, then:
as §1

For another test, the system named is FR+ KB cells. The test is described as follows: 51Chromium release cytotoxicity assay of anti-FITC CAR-expressing T cells against KB cells. The settings on record: 70 nM conjugate, effector:target 20:1, 4-10 hours. The test is classed as cell-based, human.
The test system of another test is FR+ L1210A cells. The test is described as follows: 51Chromium release cytotoxicity assay of anti-FITC CAR-expressing T cells against L1210A cells. The test is classed as cell-based, mouse. The settings on record: 70 nM conjugate, effector:target 20:1, 4-10 hours. On the procedure:
In order to explore whether CAR-expressing T cells can kill cancer cells, ^51Chromium release assays were conducted. In this assay, cancer cells are labeled with ^51Cr. When cancer cells are lysed, ^51Cr would be released from cancer cells to supernatant. By measuring ^51Cr in supernatant, the number of cancer cells killed can be determined.
First, target cancer cells L1210A were incubated in 50 μL growth medium containing 50 μCi ^51Chromium to get labeled. After washing with PBS×3, L1210A cells were resuspended and incubated at 37° C. for 1 hour in the growth medium containing 70 nM FITC-Folate conjugate or FITC-(PEG)12-Folate conjugate. After washing away excess FITC conjugates, 5×10^3 target cancer cells were added in each well of 96-well plates. […] After incubation for 4-10 hours, 20 μL aliquots of cell-free supernatant were harvested and ^51Cr in the supernatants was measured with a scintillation counter or a γ-counter.
Percent specific cytolysis was calculated using following formula: % cytolysis=(Experimental ^51Cr release−control ^51Cr release)/(Maximum ^51Cr release−control ^51Cr release)×100
Control wells contained only target cancer cells, effector T cells were never added in these wells. Maximum ^51Cr release was determined by measuring ^51Cr release from labeled target cells treated with 2.5% SDS to lyse all cells.

In test [4] the test system is PSMA-positive human prostate cancer cells. The settings on record: DUPA-(99m)Tc, ref [8]; cited from earlier work.
Setting [5] is: 20 nM, 70 nM, room temperature 1 hour.

Turning to `Nc1nc2ncc(CNc3ccc(C(=O)N[C@@H](CCC(=O)NCCNC(=S)Nc4ccc(-c5c6ccc(=O)cc-6oc6cc(O)ccc56)c(C(=O)O)c4)C(=O)O)cc3)nc2c(=O)[nH]1` (single isomer, unassigned) [FITC-Folate], the “binding to non-transduced T cells” value in test [1] (non-transduced T cells, same protocol) is “not to non-transduced T cells”. For the same compound, in test [1] (room temperature 1 hour, detected with anti-FA antibody and labeled anti-mouse IgG), the “binding to anti-FITC in CAR4-1BBZ transduced T cells” value was “successfully bound”. In addition, the “binding to KB cells via FR” value in test [2] (setting [5]) is “can bind”. For the same compound, the “binding to KB cells in the presence of competitor” value in test [2] (50× excess folate acid) is listed as “blocked”. The “cellular localization in KB cells (internalization)” value in test [2] (FIG. 3A, 3C) is “internalized into KB cell cytoplasm”. The “binding to L1210A cells via FR” value in test [3] (setting [5]) is recorded as “can bind”. The “binding to L1210A cells in the presence of competitor” value in test [3] (50× excess folate acid) is “blocked”. Moreover, the “cancer cell cytolysis by CAR-expressing T cells in the presence of conjugate” value was ~18% in the test with FR+ KB cells and ~29% in the test on FR+ L1210A cells.

Broadly, the Kd is the free concentration of one partner at which half of the binding sites on the other are occupied at equilibrium, for simple one-to-one binding. On to `O=C(O)CCC(NC(=O)NC(CCC(=O)O)C(=O)O)C(=O)O` (stereo not shown) [DUPA, 2-[3-(1,3-dicarboxypropyl)ureido] pentanedioic acid], for which, in test [4], the Kd was 0.014 µM.

The values are drawn from patent US12150981B2, “Chimeric antigen receptor-expressing T cells as anti-cancer therapeutics” (Purdue Research Foundation, priority 2012, dated 2024).
